Source: patent US9814789B2, “Radiopharmaceutical products for diagnosis and therapy of adrenal carcinoma” (JULIUS-MAXIMILIANS-UNIVERSITÄT WÜRZBURG, priority 2012, dated 2017)
Read-outs that look alike come from different tables or passages of the source.

Key:
[1] = target: T1, human cytochrome P450 family 11B1 (Cyp11B1), 11β-hydroxylase (Homo sapiens, UniProt P15538); test: Cyp11B1 (11β-hydroxylase) inhibition in stably transfected Y1-Cyp11B1 cells, substrate 11-deoxycortisol (RSS); type: cell-based
T1 construct: the full-length cDNAs for the proteins were subcloned into the multicloning site of pcDNA3.1 (zeo); expressed in transfected cells
T1 sequence (P15538 25-503): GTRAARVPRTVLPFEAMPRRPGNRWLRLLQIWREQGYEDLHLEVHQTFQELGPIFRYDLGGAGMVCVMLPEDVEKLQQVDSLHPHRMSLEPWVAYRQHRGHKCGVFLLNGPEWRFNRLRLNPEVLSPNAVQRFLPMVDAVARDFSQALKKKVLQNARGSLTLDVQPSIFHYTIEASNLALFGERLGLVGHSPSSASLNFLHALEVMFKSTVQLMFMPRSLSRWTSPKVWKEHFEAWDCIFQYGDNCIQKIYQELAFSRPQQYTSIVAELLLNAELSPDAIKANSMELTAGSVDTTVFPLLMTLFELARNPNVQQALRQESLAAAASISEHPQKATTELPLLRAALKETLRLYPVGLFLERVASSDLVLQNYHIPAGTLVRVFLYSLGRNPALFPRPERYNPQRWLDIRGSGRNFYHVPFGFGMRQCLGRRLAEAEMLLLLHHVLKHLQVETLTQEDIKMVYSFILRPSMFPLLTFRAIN
Excerpt: (§1) Plasmid constructs and transfection: To induce expression of human cytochrome P450 family 11B1 (Cyp11B1) and Cyp11B2 enzymes in Y1 cells, the full-length cDNAs for the proteins were subcloned into the multicloning site of pcDNA3.1 (zeo) (Invitrogen, Eggenstein, Germany). The cDNA fragments were isolated by PCR and digested by EcoRI. The individual fragments were ligated into the linearized vectors digested by EcoRI. Human Cyp11B1 and Cyp11B2 enzymes were expressed in Y1 cells using liposome/lipid-mediated DNA transfection. Purified plasmid DNA was mixed with Lipofectamine (Invitrogen) transfection reagents according to the manufacturer's protocol. To generate a stable Y1-Cyp11B1 and Y1-Cyp11B2 cell line, Y1 cells were transfected with the pcDNA3.1 (zeo)-Cyp11B1 and pcDNA3.1 (zeo)-Cyp11B2 vector, respectively.
(§2) Transfected cells were selected with 1000 μg/ml zeocin (Invitrogen). To screen colonies, Western blotting and real-time PCR were used to determine the level of Cyp11B1 and Cyp11B2 expression. Colonies with the highest Cyp11B expression were further tested for their ability to synthesize cortisol or aldosterone from deoxycortisol (RSS) and 11-deoxycorticosterone (DOC), respectively. Experimental protocols were standardized regarding substrate concentrations and incubation periods.
In vitro evaluation of specificity: To evaluate Cyp11B1 and Cyp11B2 inhibition by the inventive compounds, Y1-Cyp11B1 and Y1-Cyp11B2 cells were subcultured on six-well plates (0.5×10^6 cells per well) in 2 ml culture medium.
(§3) The enzyme reaction was started after 24 hours by the addition of 1 ml culture medium containing either 11-deoxycortisol (RSS) or 11-deoxycorticosterone (DOC) as substrate and the corresponding inhibitor. RSS and DOC were dissolved in ethanol to a final test concentration of 1 μM. For determination of IC50 values, the inhibitors were added to the culture medium at concentrations between 0.6 nM and 60 μM and incubated for 48 h. Y1-Cyp11B1 and Y1-Cyp11B2 cells, which were treated in the same way but without inhibitors, served as controls. As further controls, untransfected Y1 cells were also incubated with RSS and DOC, respectively. Both RSS and DOC were obtained from Sigma (Deisenhofen, Germany).

[2] = target: T2, human Cyp11B2, aldosterone synthase (Homo sapiens, UniProt P19099); test: Cyp11B2 (aldosterone synthase) inhibition in stably transfected Y1-Cyp11B2 cells, substrate 11-deoxycorticosterone (DOC); type: cell-based
T2 construct: the full-length cDNAs for the proteins were subcloned into the multicloning site of pcDNA3.1 (zeo); expressed in transfected cells
T2 sequence (P19099 25-503): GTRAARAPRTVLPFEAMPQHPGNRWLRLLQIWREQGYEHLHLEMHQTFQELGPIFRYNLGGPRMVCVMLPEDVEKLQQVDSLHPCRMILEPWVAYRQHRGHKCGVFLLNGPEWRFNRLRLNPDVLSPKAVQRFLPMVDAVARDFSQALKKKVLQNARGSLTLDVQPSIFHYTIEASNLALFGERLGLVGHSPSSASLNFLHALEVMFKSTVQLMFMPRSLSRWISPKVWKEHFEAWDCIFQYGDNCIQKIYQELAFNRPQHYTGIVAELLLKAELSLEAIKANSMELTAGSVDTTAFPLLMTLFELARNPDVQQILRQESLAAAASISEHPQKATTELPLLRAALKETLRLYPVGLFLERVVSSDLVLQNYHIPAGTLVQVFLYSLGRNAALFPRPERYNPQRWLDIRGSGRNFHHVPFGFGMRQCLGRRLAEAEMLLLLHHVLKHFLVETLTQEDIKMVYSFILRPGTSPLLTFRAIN
Excerpt: as §1, §2
as §3, with “For determination of IC50 values, the inhibitors were added to the culture medium at concentrations between 0.6 nM and 60 μM and incubated for 48 h.” left out

[3] = system: adrenal glands; test: Uptake in adrenal glands in mice, ex vivo gamma counting; details: male CD-1 mice; for uptake in adrenal glands compared to IMTO: i.v. 1 μCi (37 kBq), 15, 30, 120 and 240 min, 2a especially after 120 and 240 minutes, 2e at any time point
Procedure: The uptake of IMTO, (R)-1-[1-(4-iodophenyl)ethyl]-1H-imidazole-5-carboxylic acid ethyl-methyl amide (compound 2a) and (R)-1-[1-(4-iodophenyl)ethyl]-1H-imidazole-5-carboxylic acid azetidinylamide (compound 2e) in adrenal glands in mice in ex vivo experiments has been examined as follows. Male CD-1 mice were injected i.v. with 1 μCi (37 kBq) IMTO, (R)-1-[1-(4-[^125I]iodophenyl)ethyl]-1H-imidazole-5-carboxylic acid ethyl-methyl amide or (R)-1-[1-(4-iodophenyl)ethyl]-1H-imidazole-5-carboxylic acid azetidinylamide (compound 2e). At predefined time points (15 min, 30 min, 120 min, and 240 min) mice were killed (n≧6 per time point) and adrenals were excised and weighed. Radioactivity was measured using a gamma-counter.

[4] = system: adrenal gland and other organs; test: Biodistribution in mice; type: in vivo; details: male CD-1 mice, i.v. 37 kBq, 15 min to 4 h
Procedure: The biodistribution of IMTO, (R)-1-[1-(4-iodophenyl)ethyl]-1H-imidazole-5-carboxylic acid ethyl-methyl amide (compound 2a) and (R)-1-[1-(4-iodophenyl)ethyl]-1H-imidazole-5-carboxylic acid azetidinylamide (compound 2e) has been assessed in mice as follows. Male CD-1 mice were injected iv with 1 μCi (37 kBq) (R)-1-[1-(4-[^125I]iodophenyl)ethyl]-1H-imidazole-5-carboxylic acid ethyl-methyl amide. At predefined time points (15 min, 30 min, 2 h, and 4 h), mice were killed (n 6 per time point). Blood was collected, and heart, lung, liver, intestine, stomach, spleen, kidneys, adrenals, testes, brain and other organs were excised and weighed. Radioactivity was measured using a gamma-counter.

[5] = Metabolization of IMTO in the blood of patients; details: iodometomidate acid identified after few minutes as product of enzymatic hydrolysis
[6] = target: T3, Cyp11B1 (Homo sapiens, UniProt P15538); details: in contrast to IMTO; cited from earlier work
T3 sequence (P15538 25-503): T1 sequence (P15538 25-503)

[7] = target: T4, CYP11B2 (Homo sapiens, UniProt P19099); details: in contrast to IMTO; cited from earlier work
T4 sequence (P19099 25-503): T2 sequence (P19099 25-503)

[8] = system: adrenocortical carcinoma; details: advanced disease, retrospective analyses; cited from earlier work
[9] = Y1-Cyp11B1 cells, 1 μM RSS, 48 h incubation, read-out: IC50 11β-hydroxylase
[10] = Y1-Cyp11B2 cells, 1 μM DOC, 48 h incubation, read-out: IC50 aldosterone synthase

CCN(C)C(=O)c1cncn1[C@H](C)c1ccc(I)cc1 [2a, (R)-1-[1-(4-Iodophenyl)ethyl]-1H-imidazole-5-carboxylic acid ethylmethylamide]
IC50 [1]: 3.9 ± 0.6 nM | IC50 [2]: 4.2 ± 0.37 nM | uptake in adrenal glands compared to IMTO [3]: increased | biodistribution: organ of predominant uptake [4]: predominately in adrenal gland

CCN(CC)C(=O)c1cncn1[C@H](C)c1ccc(I)cc1 [2b]
IC50 [1]: 36.6 nM | IC50 [2]: 10.9 ± 2.02 nM

C[C@H](c1ccc(I)cc1)n1cncc1C(=O)N1CCC1 [2e, (R)-1-[1-(4-Iodophenyl)ethyl]-1H-imidazole-5-carboxylic acid azetidinylamide]
IC50 [1]: 3.16 ± 0.14 nM | IC50 [2]: 1.22 ± 0.08 nM | uptake in adrenal glands compared to IMTO [3]: greatly increased | factor of increase of adrenal uptake compared to IMTO ([3]; i.v., after 240 minutes): about 10 | biodistribution: organ of predominant uptake [4]: predominately in adrenal gland

C[C@H](c1ccc(I)cc1)n1cncc1C(=O)N1CCCCC1 [2g]
IC50 [1, 9]: 11.7 nM | IC50 [2, 10]: 5.5 ± 2.2 nM

C[C@H](c1ccc(I)cc1)n1cncc1C(=O)N1CCOCC1 [2h]
IC50 [1, 9]: 805 nM | IC50 [2, 10]: 182 nM

C[C@H](c1ccc(I)cc1)n1cncc1C(=O)N(C)C [2i]
IC50 [1]: > 1000 nM | IC50 [2]: 15.7 nM

C[C@H](c1ccc(I)cc1)n1cncc1C(N)=O [2j]
IC50 [1]: 329 ± 310 nM | IC50 [2]: 1410 ± 2070 nM

C[C@H](c1ccc(I)cc1)n1cncc1C(=O)NCCO [2k]
IC50 [1]: 336 ± 398 nM | IC50 [2]: 221 ± 168 nM

CCCN(C)C(=O)c1cncn1[C@H](C)c1ccc(I)cc1 [2l]
IC50 [1]: 74.7 nM | IC50 [2]: 3.5 ± 7.5 nM

CC(C)N(C)C(=O)c1cncn1[C@H](C)c1ccc(I)cc1 [2m]
IC50 [1]: 78.2 nM | IC50 [2]: 147 ± 61.9 nM

CCCN(CC)C(=O)c1cncn1[C@H](C)c1ccc(I)cc1 [2n]
IC50 [1]: 1320 nM | IC50 [2]: 390 ± 170 nM

Cc1nnc(-c2cncn2[C@H](C)c2ccc(I)cc2)o1 [6a]
IC50 [1, 9]: 10.6 ± 9.2 nM | IC50 [2, 10]: 90.1 nM

COC(=O)c1cncn1[C@H](C)c1ccc(I)cc1 [iodometomidate (IMTO), 4-Iodometomidate, reference compound]
IC50 [1]: 2.6 ± 1.1 nM | IC50 [2]: 2 ± 2.3 nM | biological half-life in the blood of patients [5]: very limited

C[C@H](c1ccc(I)cc1)n1cncc1C(=O)O [iodometomidate acid, (R)-1-[1-(4-Iodophenyl)ethyl]-1H-imidazole-5-carboxylic acid]
affinity to Cyp11B1 [6]: little or no affinity | affinity to CYP11B2 [7]: little or no affinity

Clc1ccc(C(c2ccccc2Cl)C(Cl)Cl)cc1 (centres unmarked) [mitotane]
overall response rate [8]: 26%
